In patent publication US20240043439A1, “COMPOUNDS AS C5AR INHIBITORS” (Kira Pharmaceuticals (Suzhou) Ltd., priority 2020, published 2024):

Key:
[1] = target: C5aR (Homo sapiens (Human), UniProt P21730); assay: Calcium mobilization (U937/C5aR or HEK293/C5aR cells, FLIPR); format: cell-based; settings: agonist human C5a at EC80, FLIPR
Description: U937/C5aR cells or HEK293/C5aR cells were washed by PBS and suspended in growth media at the density of 1×10^6 cells/ml. […] to the 384-well plate and culture for overnight. Transfer 250 nl compound solution to the cell plate using Echo, incubate for 60 min. Cells were added with Fluo-4 Direct™ dye and incubate for 50 min at 37° C. 5% CO2 and 10 m at room temperature. Place the cell plate into […] (Molecular Devices). Transfer 10 μl of 5-fold EC80 concentrations of agonist human C5a to the cell plates.

[2] = target: human C5a receptor (C5aR) (Homo sapiens (Human), UniProt P21730); assay: Inhibition of C5a-C5aR binding (biotinylated human C5a, U937/C5aR cells, FACS)
Description: U937 cells were originally obtained from the American Type Culture Collection (ATCC) and transfected with human C5a receptor (C5aR). U937/C5aR cells were cultured at 37° C., 5% CO2 in RPMI1640 (Gibco) supplemented with 10% FBS (Gibco) and 350 µg/ml Geneticin (Gibco) and passaged every 3 days to maintain the density range from […] to 2×10^6 cells/ml.
Human C5a biotinylation was performed according to the procedure provided by manufacturer (Thermo Scientific, A39257). 10 mM solution of Sulfo-NHS-LC-Biotin was prepared by adding 180μl ultrapure H2O to the 1 mg vial immediately. 12 μl 10 mM biotin reagent was added to […] human C5a solution, gently pipetted for 3 seconds, and incubated on ice for 2 hours. Amicon ultra-0.5 centrifuge filter device (Millipore, UFC5003BK) was pre-rinsed with Milli-Q H2O, centrifuged at 14000 g for 5 min immediately before use. Up to […] sample (diluted by PBS) was added to the device and capped. The device was spinned at 14000 g for approximately 5 min. 250 μl PBS was added to the filter device, spinned at 14000 g for 5 min, and repeatedly washed 6 times. The filter device was separated from the microcentrifuge tube and placed upside down in a clean microcentrifuge tube, spinned for 2 min at 1000 g to transfer the concentrated sample from the device to the tube.
U937/C5aR cells were collected and washed twice by PBS, cells were suspended in PBS+0.1% BSA buffer at the density of 3×10^6 cells/ml. 100 μl cell suspension was added to a 96 well microplate. 50 μl compound diluted in assay buffer and 50 μl biotinylated ligand human C5a (30 nM) were added to corresponding wells in order and the plate was incubated on ice for 120 min and then centrifuged at 1000 rpm for 3-5 min at 4° C. Supernatant was removed and cells were washed by pre-cold PBS twice. 100 μl FITC conjugated streptavidin was added to cells, incubated on ice for another 30 min, and then centrifuged at 1000 rpm for 3-5 min at 4° C. Supernatant was removed and cells were washed by pre-cold PBS twice. 150 μl PBS was added to suspend the cells and signals were detected by FACS (Beckman, Cytoflex).

C5aR, sequence (P21730 whole entry): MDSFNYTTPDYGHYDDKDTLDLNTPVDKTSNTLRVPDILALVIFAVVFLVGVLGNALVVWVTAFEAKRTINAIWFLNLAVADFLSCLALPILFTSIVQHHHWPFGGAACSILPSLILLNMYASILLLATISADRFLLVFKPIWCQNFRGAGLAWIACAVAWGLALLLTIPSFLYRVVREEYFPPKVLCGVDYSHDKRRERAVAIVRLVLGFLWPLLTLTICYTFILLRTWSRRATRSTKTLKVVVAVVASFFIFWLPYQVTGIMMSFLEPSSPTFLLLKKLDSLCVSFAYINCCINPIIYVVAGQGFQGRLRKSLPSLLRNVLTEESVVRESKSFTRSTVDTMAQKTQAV
human C5a receptor (C5aR), sequence (P21730 whole entry): as above

Structure (SMILES)	IC50 [1] [nM]	IC50 [2] [nM]
Cc1cccc(F)c1C(=O)N1C2CCC[C@@H]2C[C@H](C(=O)Nc2cccc(F)c2)[C@@H]1c1ccc(NC2CCCC2)cc1 (mixture of isomers) [Compound 56, cis-2-(4-(cyclopentylamino)phenyl)-1-(2-fluoro-6-methylbenzoyl)-N-(3-fluorophenyl)octahydro-1H-cyclopenta[b]pyridine-3-carboxamide]	50 to 500	< 50
Cc1cccc(F)c1C(=O)N1C2CCC[C@@H]2C[C@H](C(=O)Nc2ccc3ncn(C)c3c2)[C@@H]1c1ccc(NC2CCCC2)cc1 (mixture of isomers) [Compound 74, cis-2-(4-(cyclopentylamino)phenyl)-1-(2-fluoro-6-methylbenzoyl)-N-(1-methyl-1H-benzo[d]imidazol-6-yl)octahydro-1H-cyclopenta[b]pyridine-3-carboxamide]	> 10000	2000 to 5000
Cc1ccc(NC(=O)[C@H]2C[C@H]3COCC3N(C(=O)c3c(C)cccc3F)[C@H]2c2ccc(NC3CCOCC3)cc2)cc1C(F)(F)F (mixture of isomers) [Compound 135, cis-1-(2-fluoro-6-methylbenzoyl)-N-(4-methyl-3-(trifluoromethyl)phenyl)-2-(4-((tetrahydro-2H-pyran-4-yl)amino)phenyl)octahydrofuro[3,4-b]pyridine-3-carboxamide]	500 to 2000	50 to 500
Cc1cccc(F)c1C(=O)N1C2COC[C@@H]2C[C@H](C(=O)Nc2ccc(N(C)C)cc2)[C@@H]1c1ccc(NC2CCOCC2)cc1 (mixture of isomers) [Compound 136, cis-N-(4-(dimethylamino)phenyl)-1-(2-fluoro-6-methylbenzoyl)-2-(4-((tetrahydro-2H-pyran-4-yl)amino)phenyl)octahydrofuro[3,4-b]pyridine-3-carboxamide]	2000 to 10000	2000 to 5000
Cc1ncc(NC(=O)[C@H]2C[C@H]3CCC[C@H]3N(C(=O)c3c(C)cccc3F)[C@H]2c2ccc(NC3CCCC3)cc2)cn1 (racemic) [Compound 58, cis-2-(4-(cyclopentylamino)phenyl)-1-(2-fluoro-6-methylbenzoyl)-N-(2-methylpyrimidin-5-yl)octahydro-1H-cyclopenta[b]pyridine-3-carboxamide]	50 to 500	50 to 500
Cc1cccc(F)c1C(=O)N1[C@@H]2CCC[C@@H]2C[C@H](C(=O)Nc2ccc(Cl)c(C(F)(F)F)c2)[C@@H]1c1ccc(NC2CCCC2)cc1 (racemic) [Compound 60, cis-N-(4-chloro-3-(trifluoromethyl)phenyl)-2-(4-(cyclopentylamino)phenyl)-1-(2-fluoro-6-methylbenzoyl)octahydro-1H-cyclopenta[b]pyridine-3-carboxamide]	50 to 500	2000 to 5000
Cc1ccc(NC(=O)[C@H]2C[C@H]3CCC[C@H]3N(C(=O)c3c(C)cccc3F)[C@H]2c2ccc(NC3CCCC3)cc2)cn1 (racemic) [Compound 63, cis-2-(4-(cyclopentylamino)phenyl)-1-(2-fluoro-6-methylbenzoyl)-N-(6-methylpyridin-3-yl)octahydro-1H-cyclopenta[b]pyridine-3-carboxamide]	500 to 2000	< 50
Cc1cccc(F)c1C(=O)N1[C@@H]2CCC[C@@H]2C[C@H](C(=O)Nc2ccc(Cl)c(Cl)c2)[C@@H]1c1ccc(NC2CCCC2)cc1 (racemic) [Compound 64, cis-2-(4-(cyclopentylamino)phenyl)-N-(3,4-dichlorophenyl)-1-(2-fluoro-6-methylbenzoyl)octahydro-1H-cyclopenta[b]pyridine-3-carboxamide]	2000 to 10000	500 to 2000
Cc1cccc(F)c1C(=O)N1[C@@H]2CCC[C@@H]2C[C@H](C(=O)Nc2ccc(NC=O)c(O)c2)[C@@H]1c1ccc(NC2CCCC2)cc1 (racemic) [Compound 68, cis-2-(4-(cyclopentylamino)phenyl)-1-(2-fluoro-6-methylbenzoyl)-N-(4-formamido-3-hydroxyphenyl)octahydro-1H-cyclopenta[b]pyridine-3-carboxamide]	500 to 2000	2000 to 5000
Cc1cccc(F)c1C(=O)N1[C@@H]2CCC[C@@H]2C[C@H](C(=O)Nc2ccc3ncsc3c2)[C@@H]1c1ccc(NC2CCCC2)cc1 (racemic) [Compound 69, cis-N-(benzo[d]thiazol-6-yl)-2-(4-(cyclopentylamino)phenyl)-1-(2-fluoro-6-methylbenzoyl)octahydro-1H-cyclopenta[b]pyridine-3-carboxamide]	2000 to 10000	50 to 500
Cc1cccc(F)c1C(=O)N1[C@@H]2CCC[C@@H]2C[C@H](C(=O)Nc2ccc3c(c2)OCCO3)[C@@H]1c1ccc(NC2CCCC2)cc1 (racemic) [Compound 71, cis-2-(4-(cyclopentylamino)phenyl)-N-(2,3-dihydrobenzo[b][1,4]dioxin-6-yl)-1-(2-fluoro-6-methylbenzoyl)octahydro-1H-cyclopenta[b]pyridine-3-carboxamide]	2000 to 10000	< 50
Cc1cccc(F)c1C(=O)N1C2CCC[C@@H]2C[C@H](C(=O)Nc2cccc(Cl)c2)[C@@H]1c1ccc(NC2CCCC2)cc1 (relative stereo) [Compound 55, cis-N-(3-chlorophenyl)-2-(4-(cyclopentylamino)phenyl)-1-(2-fluoro-6-methylbenzoyl)octahydro-1H-cyclopenta[b]pyridine-3-carboxamide]	500 to 2000	50 to 500
Cc1cccc(F)c1C(=O)N1[C@@H]2CCC[C@@H]2C[C@H](C(=O)Nc2ccc(F)c(C(F)(F)F)c2)[C@@H]1c1ccc(NC2CCCC2)cc1 (relative stereo) [Compound 61, cis-2-(4-(cyclopentylamino)phenyl)-N-(4-fluoro-3-(trifluoromethyl)phenyl)-1-(2-fluoro-6-methylbenzoyl)octahydro-1H-cyclopenta[b]pyridine-3-carboxamide]	2000 to 10000	2000 to 5000
Cc1cccc(F)c1C(=O)N1[C@@H]2CCC[C@@H]2C[C@H](C(=O)Nc2ccc(F)c(F)c2)[C@@H]1c1ccc(NC2CCCC2)cc1 (relative stereo) [Compound 65, cis-2-(4-(cyclopentylamino)phenyl)-N-(3,4-difluorophenyl)-1-(2-fluoro-6-methylbenzoyl)octahydro-1H-cyclopenta[b]pyridine-3-carboxamide]	50 to 500	50 to 500
Cc1cccc(F)c1C(=O)N1[C@@H]2CCC[C@@H]2C[C@H](C(=O)Nc2ccc3c(cnn3CCF)c2)[C@@H]1c1ccc(NC2CCOCC2)cc1 [Compound 109, (2R,3S,4aR,7aR)-1-(2-fluoro-6-methylbenzoyl)-N-(1-(2-fluoroethyl)-1H-indazol-5-yl)-2-(4-((tetrahydro-2H-pyran-4-yl)amino)phenyl)octahydro-1H-cyclopenta[b]pyridine-3-carboxamide]	–	500 to 2000
Cc1cccc(F)c1C(=O)N1[C@@H]2COC[C@@H]2C[C@H](C(=O)Nc2ccc3cnn(C)c3c2)[C@@H]1c1ccc(NC2CCCC2)cc1 [Compound 122, (2R,3S,4aR,7aS)-2-(4-(cyclopentylamino)phenyl)-1-(2-fluoro-6-methylbenzoyl)-N-(1-methyl-1H-indazol-6-yl)octahydrofuro[3,4-b]pyridine-3-carboxamide]	–	2000 to 5000
Cc1cccc(F)c1C(=O)N1[C@@H]2COC[C@@H]2C[C@H](C(=O)Nc2cnc3cnn(C)c3c2)[C@@H]1c1ccc(NC2CCCC2)cc1 [Compound 123, (2R,3S,4aR,7aS)-2-(4-(cyclopentylamino)phenyl)-1-(2-fluoro-6-methylbenzoyl)-N-(1-methyl-1H-pyrazolo[4,3-b]pyridin-6-yl)octahydrofuro[3,4-b]pyridine-3-carboxamide]	–	50 to 500
Cc1cccc(F)c1C(=O)N1[C@@H]2COC[C@@H]2C[C@H](C(=O)Nc2ccc3c(cnn3C)c2)[C@@H]1c1ccc(CN2CCOCC2(C)C)cc1 [Compound 142, (2R,3S,4aR,7aS)-2-(4-((3,3-dimethylmorpholino)methyl)phenyl)-1-(2-fluoro-6-methylbenzoyl)-N-(1-methyl-1H-indazol-5-yl)octahydrofuro[3,4-b]pyridine-3-carboxamide]	–	2000 to 5000
Cc1ccc(NC(=O)[C@H]2CCCN(C(=O)c3c(C)cccc3F)[C@H]2C2CCC3(CCOC3)CC2)cc1C(F)(F)F (stereo partly drawn) [Compound 170, (2S,3S)-1-(2-fluoro-6-methylbenzoyl)-N-(4-methyl-3-(trifluoromethyl)phenyl)-2-(2-oxaspiro[4.5]decan-8-yl)piperidine-3-carboxamide]	–	500 to 2000
